Results published in ChEMBL document CHEMBL1201862, “PubChem BioAssay data set” (2004).
Calls of active or inactive are those of the source.

Key:
Aminopeptidase N = molecular target: T1, Aminopeptidase N (Plasmodium falciparum FcB1/Columbia, UniProt O96935); assay: P. falciparum M1AAP inhibitors, biochemical, fluorogenic H-Leu-NHMec substrate, 1536-well (AID 1445); design: species or system Plasmodium falciparum 3D7, 3D7
T1 sequence (O96935 whole entry): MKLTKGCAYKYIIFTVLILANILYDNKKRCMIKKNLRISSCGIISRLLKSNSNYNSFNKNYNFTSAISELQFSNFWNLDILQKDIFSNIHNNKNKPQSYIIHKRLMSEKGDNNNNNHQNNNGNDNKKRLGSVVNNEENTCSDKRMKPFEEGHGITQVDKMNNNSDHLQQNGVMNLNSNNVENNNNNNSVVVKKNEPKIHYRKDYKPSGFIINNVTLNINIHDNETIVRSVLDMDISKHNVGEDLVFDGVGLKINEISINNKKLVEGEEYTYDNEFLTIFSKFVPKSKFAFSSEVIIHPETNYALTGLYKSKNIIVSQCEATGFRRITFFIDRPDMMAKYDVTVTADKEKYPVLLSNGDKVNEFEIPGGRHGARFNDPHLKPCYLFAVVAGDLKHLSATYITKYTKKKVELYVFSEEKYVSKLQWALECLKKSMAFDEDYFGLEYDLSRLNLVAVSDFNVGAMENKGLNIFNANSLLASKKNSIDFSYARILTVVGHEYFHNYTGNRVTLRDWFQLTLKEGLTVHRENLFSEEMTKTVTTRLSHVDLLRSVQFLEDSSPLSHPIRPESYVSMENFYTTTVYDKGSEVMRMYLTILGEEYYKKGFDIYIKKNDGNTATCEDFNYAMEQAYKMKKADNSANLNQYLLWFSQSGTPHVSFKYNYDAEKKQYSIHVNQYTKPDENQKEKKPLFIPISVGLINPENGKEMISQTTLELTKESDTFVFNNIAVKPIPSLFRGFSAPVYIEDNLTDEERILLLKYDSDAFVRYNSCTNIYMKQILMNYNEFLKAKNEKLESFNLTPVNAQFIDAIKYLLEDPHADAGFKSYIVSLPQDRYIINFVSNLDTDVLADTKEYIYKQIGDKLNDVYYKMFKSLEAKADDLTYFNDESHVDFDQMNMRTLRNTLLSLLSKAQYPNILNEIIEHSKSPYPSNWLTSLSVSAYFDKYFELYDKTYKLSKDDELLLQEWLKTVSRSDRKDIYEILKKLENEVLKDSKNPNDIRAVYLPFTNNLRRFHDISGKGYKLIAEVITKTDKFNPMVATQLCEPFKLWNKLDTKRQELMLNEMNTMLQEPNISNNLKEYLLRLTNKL

[1] = off-target signal loss in HeLa-CEM21 co-culture – HeLa F-luc CTL cells, cherry-picked, counter-screen for HIV-1 Env fusion inhibitor project, dose response (AID 652040); assay type: functional, cell-based;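 also: potency for signal decrease marking cytotoxic or nonspecific inhibition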
cells [2] = assay type: functional
[3] = growth suppression of beta-catenin-knockout colon cells, dose response, cell-based, HCT116, human colon tumor (AID 1045); assay type: functional;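 also: HCT116 colon tumor cells with beta catenin knocked out; cells exposed to compound for 60 hours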
[4] = growth suppression of PTEN-null colon cells, dose response, cell-based, HCT116 PTEN knockout (AID 1047); assay type: functional;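 also: HCT116 colon tumor cells with PTEN knocked out; cells exposed to compound for 60 hours before readout; potency for loss of cell viability measured by luminescence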
[5] = THP-1 cell cytotoxicity, dose response, cytotoxicity control for non-replicating M. tuberculosis project (AID 489025); assay type: functional
[6] = molecular target: Heat shock protein HSP 90-alpha (Homo sapiens, UniProt P07900); assay type: functional, organism-based
[7] = NIH-3T3 fibroblast cytotoxicity, dose response, cytotoxicity control, cell-based, fluorescence, Alamar Blue, secondary assay (AID 2327); assay type: functional;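 also: NIH-3T3 mouse fibroblasts cultured with fluconazole at 8 µg/mL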
[8] = C. albicans growth with fluconazole, confirmation, fluorescence, retest (AID 2467); assay type: functional, cell-based
cells [9] = assay type: functional, cell-based
cells [10] = assay type: functional, cell-based; remark: listed apart in the source
[11] = microbe, parasite or virus in culture; assay type: functional; conditions: Mycobacterium tuberculosis
Leucine aminopeptidase = molecular target: T2, Leucine aminopeptidase (Plasmodium falciparum 3D7, UniProt Q8IL11); assay: P. falciparum M17LAP inhibitors, primary screen, biochemical, fluorogenic H-Leu-NHMec substrate, 1536-well (AID 1619); assay type: functional
T2 sequence (Q8IL11 whole entry): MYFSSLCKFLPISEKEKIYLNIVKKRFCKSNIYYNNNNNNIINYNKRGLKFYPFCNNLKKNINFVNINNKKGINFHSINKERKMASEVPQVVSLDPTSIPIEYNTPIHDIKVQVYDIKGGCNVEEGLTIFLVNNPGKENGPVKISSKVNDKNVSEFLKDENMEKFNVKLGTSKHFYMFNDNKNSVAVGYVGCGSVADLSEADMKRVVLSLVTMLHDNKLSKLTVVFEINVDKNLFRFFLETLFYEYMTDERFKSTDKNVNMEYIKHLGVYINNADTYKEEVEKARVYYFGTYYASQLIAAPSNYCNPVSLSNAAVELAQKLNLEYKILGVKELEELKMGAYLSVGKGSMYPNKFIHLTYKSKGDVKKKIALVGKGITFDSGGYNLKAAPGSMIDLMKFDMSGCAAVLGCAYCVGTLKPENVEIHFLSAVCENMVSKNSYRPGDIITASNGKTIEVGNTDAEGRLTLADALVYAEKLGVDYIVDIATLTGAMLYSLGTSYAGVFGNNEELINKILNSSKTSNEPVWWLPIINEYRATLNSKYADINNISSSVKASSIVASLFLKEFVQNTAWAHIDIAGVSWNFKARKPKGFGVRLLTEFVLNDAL

Streptococcus = assay: Group A Streptococcus viability loss, dose response, counter-screen for streptokinase expression inhibitor project, luminescence, BacTiterGlo (AID 1915); assay type: functional, organism-based;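 also: potency for reduction of bacterial viability or growth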
[12] = tested on: Streptococcus sp. 'group A'; assay: growth inhibition of control SK(-) GAS strain, dose response, counter-screen for streptokinase expression inhibitor project, luminescence, kanamycin, BacTiterGlo, confirmation (AID 1900); assay type: functional, organism-based
Streptokinase A = molecular target: T3, Streptokinase A (Streptococcus pyogenes serotype M1, UniProt P10520); assay: S. pyogenes streptokinase expression inhibitors, potency, dose response, plasminogen activation absorbance, OD405 (AID 1914); assay type: functional, Streptococcus pyogenes M1 GAS;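 also: secreted streptokinase activity via plasminogen activation per viability signal from cell pellet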
T3 sequence (P10520 whole entry): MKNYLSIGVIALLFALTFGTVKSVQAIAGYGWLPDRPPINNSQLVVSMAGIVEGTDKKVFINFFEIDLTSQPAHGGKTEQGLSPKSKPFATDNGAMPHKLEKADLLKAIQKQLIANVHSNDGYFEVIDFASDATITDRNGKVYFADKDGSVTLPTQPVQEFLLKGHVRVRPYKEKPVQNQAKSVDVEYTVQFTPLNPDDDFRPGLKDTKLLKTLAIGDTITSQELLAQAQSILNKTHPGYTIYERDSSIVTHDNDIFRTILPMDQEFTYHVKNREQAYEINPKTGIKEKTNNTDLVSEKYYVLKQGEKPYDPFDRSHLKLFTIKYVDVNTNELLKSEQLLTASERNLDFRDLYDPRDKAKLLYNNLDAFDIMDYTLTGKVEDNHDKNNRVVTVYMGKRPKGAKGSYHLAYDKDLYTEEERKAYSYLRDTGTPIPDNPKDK

[13] = inhibitors of HIV Env-driven cell fusion, dose response, cherry-pick (AID 652057); assay type: functional, cell-based
[14] = inhibitors of clade B AD8 Env fusion, dose response, cell-based, cherry-pick (AID 652062); assay type: functional;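 also: luciferase signal from cell-cell fusion driven by HIV-1 clade B AD8 Env; potency is for inhibitors of fusion seen as a drop in luminescence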
INS1 = assay: beta cell apoptosis inhibitors, cytokine rescue, dose response, luminescence, retest (AID 449756); assay type: functional, cell-based; conditions: Rattus norvegicus;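 also: cell death triggered by IL-1 beta plus TNF-alpha plus IFN-gamma mixture; protective hits raise ATP signal compared with cytokine alone wells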

CCOC(=O)CC1C(=O)NCCN1c1nc2c(C)cccn2c(=O)c1/C=C1\SC(=S)N(CC(C)C)C1=O (stereo not drawn)
IC50 (Aminopeptidase N): 42.5 µM (active)

O=C(Nc1cccc(OC(=O)N2CCOCC2)c1)N1CCOCC1
AC50 [1]: > 70 µM (inactive)

CCCOc1ccc(-c2nc(C#N)c(NCCCn3ccnc3)o2)cc1
IC50 (cells [2]): 22.4 µM (active) | EC50 [3]: 10.2 µM (active) | EC50 [4]: 61.8 µM (active) | CC50 [5]: 27.6 µM (active)

COc1ccc(NC2CCN(C3CC(=O)N(c4ccc(F)c(Cl)c4)C3=O)CC2)cc1 (stereo not drawn)
AC50 [6]: 4.11 µM (active)

CCCC1C(c2ccco2)NC(c2ccco2)CC1(C)O (stereo not drawn)
EC50 [7]: > 150 µM (inactive) | EC50 [8]: 8.34 µM (active)

O=C1c2ccccc2NC(c2c[nH]nc2-c2ccc(Cl)cc2)N1O (stereo not drawn)
EC50 [7]: > 160 µM (inactive) | EC50 [8]: > 38 µM (not active)

CCOC(=O)c1c(C)[nH]c(C(=O)OCc2ccccc2F)c1C
EC50 (cells [9]): > 350 µM (not active) | EC50 (cells [10]): 93.5 µM (active)

Cn1ncc(Br)c1C(=O)OCC(=O)Nc1nc(-c2ccccc2)cs1
EC50 (cells [9]): > 350 µM (not active) | EC50 (cells [10]): 36.4 µM (active)

Cc1ccc(C2(C)NC(=O)N(CC(=O)NC(=O)NC(C)(C)C)C2=O)cc1 (stereo not drawn)
EC50 (cells [9]): > 350 µM (not active) | EC50 (cells [10]): > 350 µM (not active)

CCN(CC)CCNCc1nc2ccccc2c(=O)n1-c1ccc(F)cc1
EC50 (cells [9]): > 350 µM (not active) | EC50 (cells [10]): > 350 µM (not active)

Cn1cccc1C(=O)NC(=O)COC(=O)c1cc(S(=O)(=O)N2CCCCC2)ccc1Cl
EC50 (cells [9]): > 350 µM (not active) | EC50 (cells [10]): > 350 µM (not active)

O=C(Nc1nccs1)c1ccc(COc2ccc(Cl)cc2)o1
CC50 [5]: > 40 µM (active)

CN(CC(=O)Nc1ccccc1Br)C(=O)c1cccnc1Nc1cccc(C(F)(F)F)c1
CC50 [11]: 19.9 µM (active)

N#C[C-](C#N)c1nc2ccccc2nc1-[n+]1cccc(NC(=O)c2ccc(F)cc2)c1
EC50 (cells [9]): > 350 µM (not active) | EC50 (cells [10]): > 350 µM (not active)

Cc1cccc(-c2ncc(CN3CCC(CO)(CCCc4ccccc4)CC3)cn2)c1
CC50 [11]: > 40 µM (active)

O=c1oc2c(CN3CCOCC3)c(O)c(Cl)cc2c2c1CCC2
IC50 (Aminopeptidase N): 42.9 µM (active)

CCOC(=O)/C(=C/c1ccc(OC(=O)c2ccccc2)cc1)C(C)=O
AC50 [6]: 2.06 µM (active)

N#Cc1c(-c2ccccc2)nc(SCC(=O)N(c2ccccc2)c2ccccc2)[nH]c1=O
IC50 (Aminopeptidase N): 34.3 µM (active)

O=C(C[n+]1ccn(CCCNP2(=O)C=C(c3ccccc3)OC(c3ccccc3)=C2)c1)c1cccs1
EC50 (cells [9]): > 350 µM (not active) | EC50 (cells [10]): > 350 µM (not active)

CCOC(=O)C1=C(Nc2ccc(C)cc2)S/C(=C\c2ccc(OCC(=O)O)c(OCC)c2)C1=O
IC50 (Leucine aminopeptidase): 15.6 µM (active) | IC50 (Aminopeptidase N): 48.6 µM (active)

O=c1oc2c(CN3CCOCC3)c(O)c(Cl)cc2c2c1CCCC2
IC50 (Aminopeptidase N): 32.2 µM (active)

Cc1n[nH]c(C)c1CCOc1ccc(C(C)C)cc1
IC50 (cells [2]): 12.2 µM (active) | CC50 [5]: > 40 µM (active) | EC50 (Streptococcus): 43.6 µM (active) | EC50 [12]: 25.1 µM (active) | EC50 (Streptokinase A): > 150 µM (not active)

C(=NN=C1c2ccccc2-c2ccccc21)c1c[nH]c2ccccc12
AC50 [6]: 5.17 µM (active)

C[C@H]1CN([C@@H](C)CO)S(=O)(=O)c2ccc(C3=CCCC3)cc2O[C@H]1CN(C)Cc1ccccc1
AC50 [13]: 18.5 µM (active) | AC50 [14]: 25.1 µM (active)

O=[N+]([O-])c1ccc(/C(=N\c2cccc3ccccc23)N2CCOCC2)cc1
EC50 [7]: > 150 µM (inactive) | EC50 [8]: > 38 µM (not active)

Cc1cccc(/C=N/NC(=O)c2c(-c3ccccc3)noc2C)c1O
EC50 (cells [9]): 23 µM (active) | EC50 (cells [10]): > 350 µM (not active) | AC50 (INS1): 1.5 µM (active)

O=C/C(=N\Nc1cccc(C(F)(F)F)c1)C(=O)c1ccccc1
AC50 [6]: 6.15 µM (active)
